Experimental data reported in publication PMC8838411, “Disrupting the MAD2L2-Rev1 Complex Enhances Cell Death upon DNA Damage” (Molecules, 2022).

Tests used:
[1] = biological target: T1, MAD2L2-Rev1 complex (myc-MAD2L2 and YFP-Rev1) (Homo sapiens, UniProt Q9UI95); assay: co-immunoprecipitation (GFP-Trap), immunoblot; assay type: cell-based; conditions: HEK293 cells, 50 μM compound, 24 h
T1 construct: stoichiometry from the docking model; with DNA repair protein REV1

[2] = biological target: T2, GST-MAD2L2 (Homo sapiens, UniProt Q9UI95); assay: field-effect biosensing (FEB, Agile R100), immobilised protein; assay type: binding; conditions: PBS; compound 1-50 μM; Hill fit or kon/koff
T2 construct: GST fusion, expressed in E. coli BL21 Star, standard GST purification, amine-immobilised on graphene chip
T2 sequence (Q9UI95 whole entry, the tested form may be a part): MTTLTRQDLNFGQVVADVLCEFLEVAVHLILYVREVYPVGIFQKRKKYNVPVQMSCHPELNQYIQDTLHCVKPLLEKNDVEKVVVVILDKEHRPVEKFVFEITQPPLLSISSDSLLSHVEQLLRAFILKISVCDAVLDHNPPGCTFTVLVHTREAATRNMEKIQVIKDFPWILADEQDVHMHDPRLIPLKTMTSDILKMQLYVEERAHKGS

[3] = biological target: T2, GST-MAD2L2; assay: as above; assay type: binding; conditions: PBS; compound 1-50 μM; Hill fit or kon/koff; unreliable

T1 sequence (Q9UI95 whole entry): as the sequence (Q9UI95 whole entry, the tested form may be a part) above
T1 sequence (Q9UBZ9 whole entry partner): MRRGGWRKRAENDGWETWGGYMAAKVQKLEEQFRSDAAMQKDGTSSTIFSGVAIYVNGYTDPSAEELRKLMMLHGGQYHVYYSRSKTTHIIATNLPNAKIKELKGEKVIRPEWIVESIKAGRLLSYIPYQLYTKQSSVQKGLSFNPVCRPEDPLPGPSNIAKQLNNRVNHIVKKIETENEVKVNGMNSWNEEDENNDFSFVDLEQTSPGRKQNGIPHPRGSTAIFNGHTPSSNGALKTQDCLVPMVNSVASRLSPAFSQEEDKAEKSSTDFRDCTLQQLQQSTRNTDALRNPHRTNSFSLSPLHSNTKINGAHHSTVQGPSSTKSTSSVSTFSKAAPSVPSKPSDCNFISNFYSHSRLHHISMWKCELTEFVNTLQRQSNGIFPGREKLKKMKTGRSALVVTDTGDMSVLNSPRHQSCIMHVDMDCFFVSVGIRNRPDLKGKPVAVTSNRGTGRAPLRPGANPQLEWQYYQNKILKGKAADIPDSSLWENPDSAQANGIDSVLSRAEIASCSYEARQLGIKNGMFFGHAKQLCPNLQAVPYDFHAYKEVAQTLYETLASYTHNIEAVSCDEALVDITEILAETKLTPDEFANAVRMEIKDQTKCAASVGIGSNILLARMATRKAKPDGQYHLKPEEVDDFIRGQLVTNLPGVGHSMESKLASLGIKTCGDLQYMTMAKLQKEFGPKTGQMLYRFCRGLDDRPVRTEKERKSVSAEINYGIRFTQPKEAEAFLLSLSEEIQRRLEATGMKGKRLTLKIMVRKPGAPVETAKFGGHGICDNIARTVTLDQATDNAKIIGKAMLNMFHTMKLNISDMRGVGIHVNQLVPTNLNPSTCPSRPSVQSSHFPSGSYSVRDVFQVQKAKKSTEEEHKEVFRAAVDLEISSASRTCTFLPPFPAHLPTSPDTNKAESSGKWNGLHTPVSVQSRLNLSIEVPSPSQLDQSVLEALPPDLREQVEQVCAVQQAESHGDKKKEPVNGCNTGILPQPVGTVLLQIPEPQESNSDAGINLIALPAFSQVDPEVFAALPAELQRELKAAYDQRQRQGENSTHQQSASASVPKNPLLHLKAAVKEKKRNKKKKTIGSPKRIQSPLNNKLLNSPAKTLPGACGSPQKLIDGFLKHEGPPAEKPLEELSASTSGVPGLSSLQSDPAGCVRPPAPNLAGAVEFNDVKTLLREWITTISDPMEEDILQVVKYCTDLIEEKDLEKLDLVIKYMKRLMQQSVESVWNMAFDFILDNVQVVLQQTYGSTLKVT

Substance | % reduction of MAD2L2-Rev1 binding at 50 μM [1] | Kd [2] [µM] | kD [3] [µM]
ZINC25496030 [c#3] | ~ 80% | 44.9 ± 2.06 | –
ZINC97017995 [c#2] | – | – | 310.8 ± 32.96
